Experimental data published in patent US20170081368A1, “PEPTIDES AS OXYTOCIN AGONISTS” (Hoffmann-La Roche Inc., priority 2014, published 2017).
*1 amine or outer side, *2 acyl side, *3 side chain or, on linkers, in order; H or OH if unused. Where a SMILES comes first, the peptide text is derived from it. Bridges are numbered along the chain shown (N, C = ends). [ ]: non-standard residue; d: D form. Hcy(O2-CH2CH2CO) = O=C([C@H](CCS(=O)(=O)CCC(=O)[*:3])N[*:1])[*:2]; αMeL = CC(C)C[C@](C)(N)C(=O)O; Chg = N[C@H](C(=O)O)C1CCCCC1; NcPrGly = O=C(O)CNC1CC1

What was measured:
Format in all cases: cell-based
[1] = biological target: T1, human Oxytocin (OTR) receptor (Homo sapiens, UniProt P30559); assay: Calcium flux assay (FLIPR) in CHO cells expressing human OTR; conditions: for Emax: CHO, maximum response normalized to endogenous full agonist = 100%, read-out: hOT efficacy; for EC50: agonist mode, CHO cells, calcium flux FLIPR, read-out: hOT EC50
T1 construct: expressed in transfected cells
T1 sequence (P30559 1-389): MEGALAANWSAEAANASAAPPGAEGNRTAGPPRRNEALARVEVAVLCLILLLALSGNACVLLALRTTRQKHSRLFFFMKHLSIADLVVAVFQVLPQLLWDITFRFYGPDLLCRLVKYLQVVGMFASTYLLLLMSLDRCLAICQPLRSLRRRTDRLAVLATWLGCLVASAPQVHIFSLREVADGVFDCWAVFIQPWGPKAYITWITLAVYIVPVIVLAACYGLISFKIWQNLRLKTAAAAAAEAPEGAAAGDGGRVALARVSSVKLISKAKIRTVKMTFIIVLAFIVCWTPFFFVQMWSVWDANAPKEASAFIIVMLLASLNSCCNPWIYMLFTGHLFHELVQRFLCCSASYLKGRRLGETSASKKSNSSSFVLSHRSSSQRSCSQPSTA
Excerpt: (§1) Chines Hamster Ovary (CHO) cells were transfected with expression plasmids encoding either the human Vla, the human Oxytocin (OTR) or the humanV2 receptor, the later in combination with the chimeric Gqs5 G protein to redirect the signal to Calcium flux. Stable cells were cloned by limiting dilution to yield monoclonal cell lines expressing either human Vla, human V2+Gqs5 or human OTR receptors and selected based on functional responses detected on a fluorometric imaging plate reader (FLIPR) detecting Calcium flux in the cell after receptor activation. The stable cell lines were grown in F-12 K Nutrient Mixture (Kaighns Modification), containing 10% foetal bovine serum (FBS), 1% penicillin-streptomycin, 1% L-glutamate, 200 ug/ml Geneticin at 37° C. in a 10% CO2 incubator at 95% humidity.
(§2) Calcium Flux Assays Using Fluorescent Imaging (Fluorometric Imaging Plate Reader, FLIPR)
(§3) On the afternoon before the assay, cells were plated at a density of 50,000 cells/well into black 96 well plates with clear bottoms to allow cell inspection and fluorescence measurements from the bottom of each well. The density of cells was sufficient to yield a confluent monolayer the next day. Hanks balanced salt solution, without phenol red, containing 20 mM HEPES (pH 7.3) and 2.5 mM probenecid (assay buffer) was prepared fresh for each experiment. Compound dilutions were made using a Beckman Biomek 2000 laboratory automation workstation, in assay buffer containing 1% DMSO. The dye-loading buffer consisted of a final concentration of 2 μM Fluo-4-AM (dissolved in DMSO and pluronic acid) in assay buffer. The existing culture media was removed from the wells and 100 μl of the dye-loading buffer was added to each well and incubated for approximately 60 min at 37° C. in a 5% CO2 incubator at 95% humidity. Once dye-loaded, the cells were washed thoroughly on an Embla cell washer with the assay buffer to remove any unincorporated dye. Exactly 100 μl assay buffer was left in each well.
(§4) Each 96 well plate containing dye-loaded cells was placed into the FLIPR machine and the laser intensity set to a suitable level to detect low basal fluorescence. To test compounds as agonists, 25 μl diluted compound was added to the plate 10 seconds into the fluorescent measurements and fluorescent response was recorded for 5 minutes. The fluorescence data was normalized to the endogenous full agonist dose-response set at 100% for the maximum response and 0% for the minimum. Each agonist concentration-response curve was constructed using a four parameter logistic equation with Microsoft Excel XLFit as follows: Y=Minimum+((Maximum−Minimum)/(1+10^(LogEC50−X)nH)), where y is the % normalized fluorescence, minimum is the minimum y, maximum is the maximum y, log EC50 is the log10 concentration which produces 50% of the maximum induced fluorescence, x is the log10 of the concentration of the agonist compound and H is the slope of the curve (the Hill Coefficient). The maximum value gives the efficacy of the agonist test compound in percentage. The concentration of agonist that produced a half-maximal response is represented by the EC50 value, the logarithm of which yielded the pEC50 value.

[2] = biological target: T2, human V1a receptor (Homo sapiens, UniProt P37288); assay: Calcium flux assay (FLIPR) in CHO cells expressing human V1a; conditions: for EC50: agonist mode, CHO cells, calcium flux FLIPR, read-out: hV1a EC50
T2 construct: expressed in transfected cells
T2 sequence (P37288 whole entry): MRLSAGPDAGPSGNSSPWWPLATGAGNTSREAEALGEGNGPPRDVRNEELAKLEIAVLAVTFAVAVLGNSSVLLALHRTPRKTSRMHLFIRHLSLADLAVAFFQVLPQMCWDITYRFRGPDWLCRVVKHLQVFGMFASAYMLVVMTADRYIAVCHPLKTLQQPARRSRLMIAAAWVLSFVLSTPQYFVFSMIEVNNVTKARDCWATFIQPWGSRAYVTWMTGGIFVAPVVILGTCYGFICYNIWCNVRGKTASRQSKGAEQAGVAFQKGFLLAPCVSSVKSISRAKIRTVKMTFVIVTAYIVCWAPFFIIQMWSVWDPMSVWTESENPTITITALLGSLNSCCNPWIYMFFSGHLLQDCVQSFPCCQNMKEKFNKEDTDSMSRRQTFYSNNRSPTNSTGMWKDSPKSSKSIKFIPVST
Excerpt: as §1, §2, §3, §4

[3] = biological target: T3, human V2 receptor (Homo sapiens, UniProt P30518); assay: Calcium flux assay (FLIPR) in CHO cells expressing human V2+Gqs5; conditions: for Emax: CHO, maximum response normalized to endogenous full agonist = 100%, read-out: hV2 efficacy; for EC50: agonist mode, CHO cells with chimeric Gqs5, calcium flux FLIPR, read-out: hV2 EC50
T3 construct: expressed in transfected cells
T3 sequence (P30518 whole entry): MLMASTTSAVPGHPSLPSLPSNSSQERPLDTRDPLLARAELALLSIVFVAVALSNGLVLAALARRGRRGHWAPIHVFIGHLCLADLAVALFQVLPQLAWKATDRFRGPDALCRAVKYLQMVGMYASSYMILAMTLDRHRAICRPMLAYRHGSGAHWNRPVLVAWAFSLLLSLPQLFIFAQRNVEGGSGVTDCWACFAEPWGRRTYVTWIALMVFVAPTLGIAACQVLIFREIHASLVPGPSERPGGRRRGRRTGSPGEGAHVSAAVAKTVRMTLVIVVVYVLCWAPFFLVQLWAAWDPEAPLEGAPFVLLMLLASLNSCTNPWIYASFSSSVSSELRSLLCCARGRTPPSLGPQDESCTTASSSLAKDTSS
Excerpt: as §1, §2, §3, §4

With `CC[C@H](C)[C@@H]1NC(=O)[C@H](Cc2ccc(O)cc2)NC(=O)CCS(=O)(=O)CC[C@@H](C(=O)N2CCC[C@H]2C(=O)N[C@@H](CC(C)C)C(=O)NCC(N)=O)NC(=O)[C@H](CC(N)=O)NC(=O)[C@H](CCC(N)=O)NC1=O` [Example 1] (HELM PEPTIDE1{Y.I.Q.N.[O=C([C@H](CCS(=O)(=O)CCC(=O)[*:3])N[*:1])[*:2]].P.L.G.[am]}$PEPTIDE1,PEPTIDE1,1:R1-5:R3$$$V2.0) the Emax [1] was 120%, the EC50 [1] was 0.8 nM and the EC50 [2] was 1630 nM. The Emax [3] was 101% and the EC50 [3] was 2980 nM.
With `CC[C@H](C)[C@@H]1NC(=O)[C@H](Cc2ccc(O)cc2)NC(=O)CCS(=O)(=O)CC[C@@H](C(=O)N(C)CC(=O)N[C@@H](CC(C)C)C(=O)NCC(N)=O)NC(=O)[C@H](CC(N)=O)NC(=O)[C@H](CCC(N)=O)NC1=O` [Example 2] (HELM PEPTIDE1{Y.I.Q.N.[O=C([C@H](CCS(=O)(=O)CCC(=O)[*:3])N[*:1])[*:2]].[Sar].L.G.[am]}$PEPTIDE1,PEPTIDE1,1:R1-5:R3$$$V2.0) the Emax [1] was 107%, the EC50 [1] was 0.8 nM and the EC50 [2] was > 27000 nM. The Emax [3] was 86% and the EC50 [3] was 3980 nM.
With `CC[C@H](C)[C@@H]1NC(=O)[C@H](Cc2ccc(O)cc2)NC(=O)CCS(=O)(=O)CC[C@@H](C(=O)N(CC(=O)N[C@@H](CC(C)C)C(=O)NCC(N)=O)C2CC2)NC(=O)[C@H](CC(N)=O)NC(=O)[C@H](CCC(N)=O)NC1=O` [Example 27] (HELM PEPTIDE1{Y.I.Q.N.[O=C([C@H](CCS(=O)(=O)CCC(=O)[*:3])N[*:1])[*:2]].[O=C(CN(C1CC1)[*:1])[*:2]].L.G.[am]}$PEPTIDE1,PEPTIDE1,1:R1-5:R3$$$V2.0) the Emax [1] was 125%, the EC50 [1] was 0.5 nM and the EC50 [2] was > 27000 nM. The Emax [3] was 110% and the EC50 [3] was 3730 nM.
In the case of `CC[C@H](C)[C@@H]1NC(=O)[C@H](Cc2ccc(O)cc2)NC(=O)CCS(=O)(=O)CC[C@@H](C(=O)N(CC(=O)N[C@@](C)(CC(C)C)C(=O)NCC(N)=O)C2CC2)NC(=O)[C@H](CC(N)=O)NC(=O)[C@H](CCC(N)=O)NC1=O` [Example 28] (YIQN[Hcy(O2-CH2CH2CO)][NcPrGly][αMeL]G-NH2; lactam N-5), the Emax [1] is reported as 105%, the EC50 [1] is reported as 0.7 nM and the EC50 [2] is reported as > 27000 nM. The Emax [3] was 129% and the EC50 [3] was 9420 nM.
`CC[C@H](C)[C@@H]1NC(=O)[C@H](Cc2ccc(O)cc2)NC(=O)CCS(=O)(=O)CC[C@@H](C(=O)N(CC(=O)N[C@H](C(=O)NCC(N)=O)C2CCCCC2)C2CC2)NC(=O)[C@H](CC(N)=O)NC(=O)[C@H](CCC(N)=O)NC1=O` [Example 32] (YIQN[Hcy(O2-CH2CH2CO)][NcPrGly][Chg]G-NH2; lactam N-5) was tested, and the Emax [1] was 120%, the EC50 [1] was 0.26 nM and the EC50 [2] was 2230 nM. For the same compound, the hV1a efficacy ([2]; maximum response normalized to endogenous full agonist = 100%) was 38%, the Emax [3] was 155% and the EC50 [3] was 2360 nM.
